The record followed here is US20110028566A1, “COMPOSITIONS AND PRODUCTS CONTAINING CYCLOALIPHATIC DIOL ANTIMICROBIAL AGENTS AND METHODS OF USING THE COMPOSITIONS AND PRODUCTS” (EASTMAN CHEMICAL COMPANY, priority 2009, published 2011).

Common to all, as to assay: MIC determination and synergy testing (Kull synergy index), microplate
Format in all cases: cell-based

Assay [1] has as its system Aspergillus niger ATCC 16404. As to conditions: for QB, MIC of CG alone / QB, MIC of PE alone: A. niger; for QB, MIC of PE alone: plates 122C, 242C. The protocol: (§1) The test cultures are listed in Table 7 along with the incubation temperatures used for growth and minimum inhibitory concentration (MIC) testing. […] C. albicans was cultured in Sabouraud dextrose broth (SDB) for approximately 44-52 hours for preparation of inoculum. A. niger was cultured on Sabouraud dextrose agar (SDA) for 3-4 days until there was confluent growth and visible spore formation. Spores were harvested from the SDA plates by flooding the surface of the plate with 5-10 mL of phosphate-buffered saline (PBS) and gently spreading the liquid across the surface of the plate with a sterile T-shaped plastic spreader (Copan Diagnostics) until there was a well-mixed suspension of spores. The resulting spore suspension was collected using a serological pipette and stored at 2-8° C. until use.
(§2) Inoculum concentration was determined by dilution plating of the cultures or spore suspension. A serial dilution in PBS was made to 10^−8 for the bacterial cultures or 10^−5 for the fungal cultures. Fifty or 100 μL of the final dilution was spread on two Trypticase-soy agar (TSA) plates for bacteria or two SDA plates for fungi. After 24 to 48 hours plates were counted and the concentrations used in each experiment were calculated.
The A. niger spore suspensions were concentrated to a level of 1-2×10^8 spores/mL by centrifugation and resuspension in a portion of the resulting supernatant.
(§3) The antimicrobial agents tested for synergy along with the respective diluents and working stock solution concentrations are shown below. For determination of MIC ranges, individual antimicrobial agent stock solutions were added to sterile medium to yield the highest level test concentrations, and then serially diluted in the medium to prepare the range of test concentrations. For synergy testing individual test concentrations were prepared in sterile medium, and then blended to form the desired combinations.
(§4) MICs were determined using a high-throughput microplate method. Individual antimicrobial agents were added to TSB (pH 7.3) for bacterial testing or SDB (pH 5.6) for fungal testing at the highest concentration to be tested. A serial dilution series was prepared at a dilution ratio of 1:1.3333 such that a one log range was covered in nine dilutions. Two-hundred microliters of the diluted antimicrobial agents were dispensed into four wells each of a sterile, 96-well, flat-bottom microplate (Nalge Nunc International). Four additional wells of the highest concentration were dispensed to serve as uninoculated high-level controls. Eight additional wells containing only broth medium were also prepared, four to serve as negative controls and four as positive controls. Three wells of each antimicrobial agent dilution were inoculated with one of the test strains in Table 7. The final well of each antimicrobial agent dilution was left uninoculated to serve as a control (and means of compensating) for any absorbance/turbidity due to the test compounds.
Microplates were inoculated using the cultures or spore suspensions prepared as described above. The S. aureus cultures were used undiluted, while the E. coli and P. aeruginosa cultures were used either undiluted or after a 1:2 dilution in sterile TSB. The C. albicans cultures were used either undiluted or following a 2-fold concentration by centrifugation. One of two means of inoculation was used to deliver a final concentration of approximately 10^5 colony-forming units (CFU)/mL of C. albicans, 10^5 spores/mL of A. niger, or 10^6 CFU/mL of bacteria. The primary method used a stainless steel pin replicator (Nalge Nunc International) mounted on a hand-operated bench-top press (Schmidt Technology Corporation) fitted with a custom-built microplate holder to dispense one microliter of each inoculum from a “master” plate containing 50-100 μL of culture into the wells of the test plate. The pin replicator was sterilized before and between inoculations by immersing in ethanol and flaming. […]

Assay [2] deals with Pseudomonas aeruginosa ATCC 27853. As to conditions: for QB, MIC of CG alone: P. aeruginosa, plate 169E. The procedure:
as §1, §2, §3, §4
(§5) Microplates were inoculated using the cultures or spore suspensions prepared as described above. The S. aureus cultures were used undiluted, while the E. coli and P. aeruginosa cultures were used either undiluted or after a 1:2 dilution in sterile TSB. The C. albicans cultures were used either undiluted or following a 2-fold concentration by centrifugation. One of two means of inoculation was used to deliver a final concentration of approximately 10^5 colony-forming units (CFU)/mL of C. albicans, 10^5 spores/mL of A. niger, or 10^6 CFU/mL of bacteria. The primary method used a stainless steel pin replicator (Nalge Nunc International) mounted on a hand-operated bench-top press (Schmidt Technology Corporation) fitted with a custom-built microplate holder to dispense one microliter of each inoculum from a “master” plate containing 50-100 μL of culture into the wells of the test plate. The pin replicator was sterilized before and between inoculations by immersing in ethanol and flaming. The alternative method of inoculation was by directly pipetting 20 μL of a 1:20 dilution of each culture or spore suspension into the appropriate wells of the test plates.

In assay [3] the test system is Staphylococcus aureus ATCC 25923. The conditions noted are these: for QB, MIC of CG alone: plate 125D. The protocol: as §1, §2, §3, §4, §5
Assay [4] deals with Candida albicans ATCC 10231. The conditions noted are these: for QB, MIC of MP alone: plate 128B; for QB, MIC of PE alone: plates 116B, 240B, 252B. The protocol: as §1, §2, §3, §4, §5
In assay [5] the test system is Escherichia coli ATCC 25922. The conditions noted are these: E. coli; for QB, MIC of MP alone: plate 108A; for QB, MIC of PE alone: plates 105A, 213A, 223A. The protocol: as §1, §2, §3, §4, §5
Setting [6] is: C. albicans, day 2 of incubation.
Where [7] appears, read: C. albicans, day 3 of incubation.

Structures are written as SMILES. Where “and” joins values, the source holds several entries; their conditions need not be identical. Equal entries are not always repeated.

For `CCCCCCC(O)CO` (centres unmarked) [Caprylyl glycol (CG)], the “QB, MIC of CG alone” value in assay [1] (day 2 of incubation, plates 123C, 217C) is 0.17 weight percent and 0.10 weight percent; in assay [1] (day 3 of incubation, plate 123C) it was 0.13 weight percent; in assay [2] (day 1 of incubation), 0.23 weight percent; in assay [2] (day 2 of incubation), 0.30 weight percent; in assay [2] (day 3 of incubation) it was 0.30 weight percent; in assay [3] (S. aureus, day 1 of incubation) it was 0.24 weight percent. Moreover, the “QB, MIC of CG alone” value is 0.32 weight percent in assay [3] (S. aureus, day 2 of incubation); 0.11 weight percent and 0.22 weight percent in assay [4] (C. albicans, day 3 of incubation, plates 117B, 254B).

Consider `CC1(C)C(=O)N(CO)C(=O)N1CO` [DMDMH, DMDM Hydantoin, reference compound], for which the QB/b in assay [1] (DMDM hydantoin alone (QB) or in combination with CHDM (b), plate 196C, day 3) turned out to be 0.14; in assay [2] (DMDM hydantoin alone (QB) or in combination with CHDM (b), plate 150E, day 1), 0.049; in assay [4] (DMDM hydantoin alone (QB) or in combination with CHDM (b), plate 241B, day 2), 0.22; in assay [4] (DMDM hydantoin alone (QB) or in combination with CHDM (b), plate 241B, day 3) it was 0.22; in assay [4] (DMDM hydantoin alone (QB) or in combination with CHDM (b), plate 244B, day 2) it was 0.36; in assay [4] (DMDM hydantoin alone (QB) or in combination with CHDM (b), plate 244B, day 3), 0.36. Besides, the QB/b in assay [4] (DMDM hydantoin alone (QB) or in combination with CHDM (b), plate 263B, day 2) was 0.45; in assay [4] (DMDM hydantoin alone (QB) or in combination with CHDM (b), plate 263B, day 3), 0.80; in assay [4] (DMDM hydantoin alone (QB) or in combination with CHDM (b), plate 264B, day 2), 0.34; in assay [4] (DMDM hydantoin alone (QB) or in combination with CHDM (b), plate 264B, day 3), 0.60.

As to `Cn1sccc1=O` [MIT, Methylisothiazolinone, reference compound], the QB/b came to 0.04 in assay [1] (MIT: MIC alone (QB) or conc. in combination with CHDM (b), plate 193C, day 2); 0.03 in assay [1] (MIT: MIC alone (QB) or conc. in combination with CHDM (b), plate 193C, day 3); 0.04 in assay [1] (MIT: MIC alone (QB) or conc. in combination with CHDM (b), plate 214C, day 2); 0.04 in assay [1] (MIT: MIC alone (QB) or conc. in combination with CHDM (b), plate 214C, day 3); 0.00053 in assay [2] (MIT: MIC alone (QB) or conc. in combination with CHDM (b), plate 147E, day 1); 0.00093 in assay [2] (MIT: MIC alone (QB) or conc. in combination with CHDM (b), plate 147E, day 2). Further, the QB/b is reported as 0.0006 in assay [2] (MIT: MIC alone (QB) or conc. in combination with CHDM (b), plate 210E, day 1); 0.001 in assay [2] (MIT: MIC alone (QB) or conc. in combination with CHDM (b), plate 210E, day 2); 0.00048 in assay [2] (MIT: MIC alone (QB) or conc. in combination with CHDM (b), plate 249E, day 1); 0.0009 in assay [2] (MIT: MIC alone (QB) or conc. in combination with CHDM (b), plate 249E, day 2); 0.002 in assay [3] (MIT: MIC alone (QB) or conc. in combination with CHDM (b), plate 137D, day 2); 0.012 in assay [4] (MIT: MIC alone (QB) or conc. in combination with CHDM (b), plate 162B, day 3). Also, the QB/b in assay [4] (MIT: MIC alone (QB) or conc. in combination with CHDM (b), plate 200B, day 2) came to 0.021; in assay [4] (MIT: MIC alone (QB) or conc. in combination with CHDM (b), plate 200B, day 3) it was 0.021. In assay [2] (Kull synergy index, synergistic when at least two results SI<1), the “Synergism of antimicrobial agent in combination with 1,4-CHDM for P. aeruginosa (in words; in the 12th table the cell names the organism and table number)” value was “P. aeruginosa (26)”.

Take `COC(=O)c1ccc(O)cc1` [Methylparaben (MP)]: the “QB, MIC of MP alone” value was determined as 0.112 weight percent in assay [5] (day 1 of incubation), 0.112 weight percent in assay [5] (day 2 of incubation), 0.060 weight percent in assay [4] (setting [6]) and 0.080 weight percent in assay [4] (setting [7]).

With `OCCOc1ccccc1` [Phenoxyethanol (PE)], the “QB, MIC of PE alone” value was 0.24 weight percent and 0.30 weight percent in assay [1] (day 2 of incubation); 0.24 weight percent and 0.40 weight percent in assay [1] (day 3 of incubation); 0.36 weight percent and 0.33 weight percent and 0.48 weight percent in assay [5] (day 1 of incubation); 0.48 weight percent and 0.36 weight percent and 0.43 weight percent in assay [5] (day 2 of incubation); 0.73 weight percent and 0.55 weight percent in assay [3] (S. aureus, day 2 of incubation, plates 124D, 219D); 0.22 weight percent and 0.27 weight percent and 0.23 weight percent in assay [4] (setting [6]). The “QB, MIC of PE alone” value in assay [4] (setting [7]) is 0.22 weight percent and 0.27 weight percent and 0.30 weight percent.
